Experimental data reported in article PMC5632533, “Mechanisms of action and in vivo antibacterial efficacy assessment of five novel hybrid peptides derived from Indolicidin and Ranalexin against Streptococcus pneumoniae” (PeerJ, 2017).

Tests used:
ICR (CD-1) mice = experiment: In vivo toxicity in mice (SC, IN, IP routes); design: Aspartate aminotransferase, AST / Alanine transaminase, ALT / Alkaline phosphatase, ALP / Creatinine / Urea / Total bilirubin: unit not given here; settings: for Eosinophil / Erythrocytes, RBC / Granulocytes / Hematocrit, HCT / Hemoglobin Hgb / Lymphocytes / Mean corpuscular haemoglobin concentration, MCHC / Mean corpuscular haemoglobin, MCH / Mean corpuscular volume, MCV / Monocytes / White blood cells, WBC / platelet Counts, PLT / Alanine transaminase, ALT / Alkaline phosphatase, ALP / Aspartate aminotransferase, AST / Creatinine / Total bilirubin / Urea: 3 doses (1hr, 12hr, 24hr), RN7-IN9, RN7-IN6 10 mg/kg, day 7, mean±SD, 4 mice; for Alanine transaminase, ALT / Alkaline phosphatase, ALP / Aspartate aminotransferase, AST / Creatinine / Total bilirubin / Urea: serum
Description: In this study, 4-week old male, pathogen free ICR (CD-1) mice were purchased from InVivos (Lim Chu Kang, Singapore) and used to assess the in vivo toxicity and antibacterial efficacy of the novel peptides, as these animals are by far the most commonly used model for the study of pneumococcal disease ([Chiavolini, Pozzi & Ricci, 2008]). The mice were kept in ventilated polycarbonate cages (12 h light/dark cycle, 20 ± 2 °C and 55% relative humidity). All mice were familiarized for seven days before any experimental procedure and were given unlimited pellets and water ad libitum. All animal experimentations were conducted according to the guidelines approved by Faculty of Medicine Institutional Animal Care and Use Committee (FOM IACUC), University of Malaya (ethics Reference no. : 2013-07-15/MMBTR/SDS).
In order to evaluate the possible toxic effects correlated to peptides administered in mice, four hybrid peptides RN7-IN10, RN7-IN9, RN7-IN8 and RN7-IN6 were chosen for in vivo toxicity assessment, due to their promising in vitro antibacterial activity ([Jindal et al., 2015]). Mice were separated into four groups (each with four mice) and were injected with respective peptides at 1 h, 12 h, and 24 h (three-dose regimen) via IP, SC, and IN administration routes. The hybrid peptides were first administered at high doses (100 mg/kg for IP route, 100 mg/kg for SC routes and 20 mg/kg for IN route). Any abnormal behavior was recorded and survival of mice was noted as well. In case adverse effects such as high physical stress, severe lethargy, physical inactiveness, and/or death were detected, lower graded doses were given. All the administered mice were monitored for seven days or until death occurred. At day seven post administration, all animals were sacrificed and blood and organs were collected. Untreated mice were used as a control group.
Mice used to evaluate the in vivo toxicity and antibacterial activity of the hybrid peptides using the subcutaneous (SC) and intranasal (IN) administration routes, were anesthetized using a combination of a standard dose of xylazine (ilium xylazil-20, 10 mg/kg) and ketamine (Narketan®-10, 100 mg/kg) through intraperitoneal (IP) injection. After seven days of treatment, the in vivo toxicity and antibacterial efficacy experiments were ended and the surviving mice were anesthetized. Blood samples for Hematological and biochemical analysis were collected via cardiac puncture using a 25G syringe (BD bioscience, San Jose, CA, USA). Whole blood for heamatological analysis was collected in 500 µl dipotassium EDTA microtainer tubes (BD Bioscience, USA). About 500 µl of blood collected an eppedorff tube and centrifuged at 8000 rpm for 5 min and then the serum was transferred into a new 1.5 ml tube for biochemistry analysis. The mice were then euthanized by cervical dislocation, dissected and the following organs were collected for histopathology evaluation: lung, kidney, brain, liver and spleen.
For whole blood analysis, the parameters were number of red cells (RBC), number of white cells (WBC), lymphocytes, monocytes, eosinophil, granulocytes, haemoglobin (Hgb), mean corpuscular volume (MCV), hematocrit (HCT), platelet Counts (PLT), Mean corpuscular haemoglobin (MCH) and corpuscular haemoglobin concentration (MCHC). For biochemistry analysis, the parameters were alanine transaminase (ALT), creatinine, alkaline phosphatase (ALP), aspartate aminotransferase (AST), total bilirubin and urea.
The following organs were collected from all the dissected mice: lung, kidney, brain, spleen, and liver. All tissues were fixed in 10% (v/v) buffered formalin and processed for paraffin embedding. Hematoxylin–eosin (HE) was used to stain the histological sections at the histopathology laboratory, Veterinary Laboratory Service Unit, University Putra Malaysia (UPM).

Streptococcus pneumoniae = settings: 30 pneumococcal clinical isolates; earlier study; ref Jindal et al., 2015; cited from earlier work
From the text: Table 1 Sequences and physicochemical properties of the template and hybrid AMPs. | column: MIC^a || One of the advantageous alternatives to today’s antibiotics is antimicrobial peptides (AMPs) ([Deslouches et al., 2013]; [Sánchez-Vásquez et al., 2013]). AMPs are synthesized by almost all living beings as the first line of defense in their immune system against microbial infection. Many aspects favor AMPs over traditional antibiotics: a broad range of antimicrobial activity against pathogenic micro-organisms (including viruses, parasites, bacteria, and fungi), microbial pathogens are less efficient in developing resistance against AMPs, as killing take place in a short contact time and AMPs c ...

[1] = IN, head doses: RN7-IN10, RN7-IN8 20 mg/kg
[2] = SC, head doses: RN7-IN10, RN7-IN8 20 mg/kg

## FLGGLIKWKWPWWPWRR-NH2 [RN7-IN10, hybrid peptide of ranalexin (residues 1-7) and indolicidin (residues 4-13)]
ICR (CD-1) mice; [1]
  Eosinophil: 2.7±0.97%
  Erythrocytes, RBC: 9.62±0.79 10^6/mm^3
  Granulocytes: 66.6±21.64%
  Hematocrit, HCT: 47.95±3.18%
  Hemoglobin Hgb: 15.47 ± 1.07 g/dL
  Lymphocytes: 58.5±7.53%
  Mean corpuscular haemoglobin concentration, MCHC: 28.3 ± 8.15 g/dL
  Mean corpuscular haemoglobin, MCH: 20 ± 7.87 pg
  Mean corpuscular volume, MCV: 50.75±1.7 µm^3
  Monocytes: 2.2±0.37%
  White blood cells, WBC: 5.2±1.44 10^3/mm^3
  platelet Counts, PLT: 619.5±100.42 10^3/mm^3
  Alanine transaminase, ALT: 66.9±17.02
  Alkaline phosphatase, ALP: 133.3±10.1
  Aspartate aminotransferase, AST: 172±8.78
  Creatinine: 40.94±0.83
  Total bilirubin: 2.15±0.14
  Urea: 9.3±1.68
ICR (CD-1) mice; IP, RN7-IN10, RN7-IN8 20 mg/kg
  Eosinophil: 2.23±1.61%
  Erythrocytes, RBC: 9.16±0.92 10^6/mm^3
  Granulocytes: 46.27±16.41%
  Hematocrit, HCT: 47.67±5.6%
  Hemoglobin Hgb: 15.85 ± 1.27 g/dL
  Lymphocytes: 51.03±16.69%
  Mean corpuscular haemoglobin concentration, MCHC: 33.85 ± 0.60 g/dL
  Mean corpuscular haemoglobin, MCH: 17.6 ± 0.46 pg
  Mean corpuscular volume, MCV: 50.75±2.06 µm^3
  Monocytes: 2.8±0.5%
  White blood cells, WBC: 4.2±0.55 10^3/mm^3
  platelet Counts, PLT: 535±150.11 10^3/mm^3
  Alanine transaminase, ALT: 52.76±12.22
  Alkaline phosphatase, ALP: 124.33±10.6
  Aspartate aminotransferase, AST: 181.66±38.27
  Creatinine: 38.1±6.97
  Total bilirubin: 1.82±0.03
  Urea: 9.6±2.11
ICR (CD-1) mice; IP, doses at 1 h, 12 h, 24 h, no death up to seven days
  maximum IP dose at which no signs of stress or abnormal behavior were evident (non-toxic dose): 20 mg/kg
ICR (CD-1) mice; [2]
  Eosinophil: 2.82±0.25%
  Erythrocytes, RBC: 8.04±1.18 10^6/mm^3
  Hematocrit, HCT: 41.5±3.7%
  Hemoglobin Hgb: 13.75 ± 1.77 g/dL
  Lymphocytes: 52.2±3.3%
  Mean corpuscular haemoglobin concentration, MCHC: 34.45 ± 1.35 g/dL
  Mean corpuscular haemoglobin, MCH: 17.08 ± 0.4 pg
  Mean corpuscular volume, MCV: 50±2.16 µm^3
  Monocytes: 2.2±0.28%
  White blood cells, WBC: 3.8±0.2 10^3/mm^3
  platelet Counts, PLT: 568.75±81.73 10^3/mm^3
  Alanine transaminase, ALT: 51.25±11.9
  Aspartate aminotransferase, AST: 175±25.41
  Creatinine: 37.8±3.43
  Total bilirubin: 2.1±0.35
  Urea: 9.2±0.8
Streptococcus pneumoniae
  MIC, minimum inhibitory concentration: 7.81 to 15.62 µg/mL
